{"source": "PubChem BioAssay AID2060489", "about": "(Molecular Pharmacology Branch, DTP, NCI, 2025)", "system": "922993-354-T-J3-PDC complex spheroids, viability", "assay": "Anticancer human tumor 922993-354-T-J3-PDC patient-derived endometrial carcinoma cell line growth inhibition [GQUAD]", "conditions": "for IC50: curve of first compound; for viability, T/C: stronger effect = lower value", "in_short": "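Viability of tumor cells grown as complex spheroids with endothelial and stromal cells, exposed to drug combinations. Top concentration at or near clinical Cmax (else 10 microM), diluted in half-log increments.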", "key": {"[1]": {"conditions": "second compound 0.0316 µM, first compound 0.0316 µM"}, "[2]": {"conditions": "second compound 0.0316 µM, first compound 0.1 µM"}, "[3]": {"conditions": "second compound 0.0316 µM, first compound 0.316 µM"}, "[4]": {"conditions": "second compound 0.0316 µM, first compound 1 µM"}, "[5]": {"conditions": "second compound 0.0316 µM, first compound 3.16 µM"}, "[6]": {"conditions": "second compound 0.0316 µM, first compound 10 µM"}, "[7]": {"conditions": "second compound 0.1 µM, first compound 0.0316 µM"}, "[8]": {"conditions": "second compound 0.1 µM, first compound 0.1 µM"}, "[9]": {"conditions": "second compound 0.1 µM, first compound 0.316 µM"}, "[10]": {"conditions": "second compound 0.1 µM, first compound 1 µM"}, "[11]": {"conditions": "second compound 0.1 µM, first compound 3.16 µM"}, "[12]": {"conditions": "second compound 0.1 µM, first compound 10 µM"}, "[13]": {"conditions": "second compound 0.316 µM, first compound 0.0316 µM"}, "[14]": {"conditions": "second compound 0.316 µM, first compound 0.1 µM"}, "[15]": {"conditions": "second compound 0.316 µM, first compound 0.316 µM"}, "[16]": {"conditions": "second compound 0.316 µM, first compound 1 µM"}, "[17]": {"conditions": "second compound 0.316 µM, first compound 3.16 µM"}, "[18]": {"conditions": "second compound 0.316 µM, first compound 10 µM"}, "[19]": {"conditions": "second compound 1 µM, first compound 0.0316 µM"}, "[20]": {"conditions": "second compound 1 µM, first compound 0.1 µM"}, "[21]": {"conditions": "second compound 1 µM, first compound 0.316 µM"}, "[22]": {"conditions": "second compound 1 µM, first compound 1 µM"}, "[23]": {"conditions": "second compound 1 µM, first compound 3.16 µM"}, "[24]": {"conditions": "second compound 1 µM, first compound 10 µM"}, "[25]": {"conditions": "second compound 3.16 µM, first compound 0.0316 µM"}, "[26]": {"conditions": "second compound 3.16 µM, first compound 0.1 µM"}, "[27]": {"conditions": "second compound 3.16 µM, first compound 0.316 µM"}, "[28]": {"conditions": "second compound 3.16 µM, first compound 1 µM"}, "[29]": {"conditions": "second compound 3.16 µM, first compound 3.16 µM"}, "[30]": {"conditions": "second compound 3.16 µM, first compound 10 µM"}, "[31]": {"conditions": "second compound 10 µM, first compound 0.0316 µM"}, "[32]": {"conditions": "second compound 10 µM, first compound 0.1 µM"}, "[33]": {"conditions": "second compound 10 µM, first compound 0.316 µM"}, "[34]": {"conditions": "second compound 10 µM, first compound 1 µM"}, "[35]": {"conditions": "second compound 10 µM, first compound 3.16 µM"}, "[36]": {"conditions": "second compound 10 µM, first compound 10 µM"}}, "data": [{"molecule": "CC(=O)O[C@H]1C(=O)[C@@]2(C)[C@H]([C@H](OC(=O)c3ccccc3)[C@]3(O)C[C@H](OC(=O)[C@H](O)[C@@H](NC(=O)c4ccccc4)c4ccccc4)C(C)=C1C3(C)C)[C@]1(OC(C)=O)CO[C@@H]1C[C@@H]2O", "note": "+ CN(C)c1ccc(Nc2c3ccc(NC(=O)CCN4CCCC4)cc3nc3cc(NC(=O)CCN4CCCC4)ccc23)cc1;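 further: spheroids exposed to compounds for seven days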;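 on viability, T/C: 100% = DMSO vehicle control viability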", "values": [{"measurement": "IC50", "setting": "second compound 0.0316 µM", "result": 7.96, "unit": "µM"}, {"measurement": "IC50", "setting": "second compound 0.1 µM", "result": 8.65, "unit": "µM"}, {"measurement": "IC50", "setting": "second compound 0.316 µM", "result": "> 10", "unit": "µM"}, {"measurement": "IC50", "setting": "second compound 1 µM", "result": "> 10", "unit": "µM"}, {"measurement": "IC50", "setting": "second compound 3.16 µM", "result": "> 10", "unit": "µM"}, {"measurement": "IC50", "setting": "second compound 10 µM", "result": "> 10", "unit": "µM"}, {"measurement": "viability, T/C", "setting": "[1]", "result": 86.5, "unit": "%"}, {"measurement": "viability, T/C", "setting": "[2]", "result": 79, "unit": "%"}, {"measurement": "viability, T/C", "setting": "[3]", "result": 104, "unit": "%"}, {"measurement": "viability, T/C", "setting": "[4]", "result": 104, "unit": "%"}, {"measurement": "viability, T/C", "setting": "[5]", "result": 65.3, "unit": "%"}, {"measurement": "viability, T/C", "setting": "[6]", "result": 46.2, "unit": "%"}, {"measurement": "viability, T/C", "setting": "[7]", "result": 83.4, "unit": "%"}, {"measurement": "viability, T/C", "setting": "[8]", "result": 90.2, "unit": "%"}, {"measurement": "viability, T/C", "setting": "[9]", "result": 113, "unit": "%"}, {"measurement": "viability, T/C", "setting": "[10]", "result": 101, "unit": "%"}, {"measurement": "viability, T/C", "setting": "[11]", "result": 67.3, "unit": "%"}, {"measurement": "viability, T/C", "setting": "[12]", "result": 47.5, "unit": "%"}, {"measurement": "viability, T/C", "setting": "[13]", "result": 73.5, "unit": "%"}, {"measurement": "viability, T/C", "setting": "[14]", "result": 82.3, "unit": "%"}, {"measurement": "viability, T/C", "setting": "[15]", "result": 116, "unit": "%"}, {"measurement": "viability, T/C", "setting": "[16]", "result": 85.6, "unit": "%"}, {"measurement": "viability, T/C", "setting": "[17]", "result": 72, "unit": "%"}, {"measurement": "viability, T/C", "setting": "[18]", "result": 57.5, "unit": "%"}, {"measurement": "viability, T/C", "setting": "[19]", "result": 81.1, "unit": "%"}, {"measurement": "viability, T/C", "setting": "[20]", "result": 99.5, "unit": "%"}, {"measurement": "viability, T/C", "setting": "[21]", "result": 96.4, "unit": "%"}, {"measurement": "viability, T/C", "setting": "[22]", "result": 69.5, "unit": "%"}, {"measurement": "viability, T/C", "setting": "[23]", "result": 80, "unit": "%"}, {"measurement": "viability, T/C", "setting": "[24]", "result": 51.8, "unit": "%"}, {"measurement": "viability, T/C", "setting": "[25]", "result": 93.7, "unit": "%"}, {"measurement": "viability, T/C", "setting": "[26]", "result": 116, "unit": "%"}, {"measurement": "viability, T/C", "setting": "[27]", "result": 103, "unit": "%"}, {"measurement": "viability, T/C", "setting": "[28]", "result": 92.5, "unit": "%"}, {"measurement": "viability, T/C", "setting": "[29]", "result": 82.6, "unit": "%"}, {"measurement": "viability, T/C", "setting": "[30]", "result": 53.5, "unit": "%"}, {"measurement": "viability, T/C", "setting": "[31]", "result": 99.7, "unit": "%"}, {"measurement": "viability, T/C", "setting": "[32]", "result": 122, "unit": "%"}, {"measurement": "viability, T/C", "setting": "[33]", "result": 125, "unit": "%"}, {"measurement": "viability, T/C", "setting": "[34]", "result": 130, "unit": "%"}, {"measurement": "viability, T/C", "setting": "[35]", "result": 77.6, "unit": "%"}, {"measurement": "viability, T/C", "setting": "[36]", "result": 67.1, "unit": "%"}]}, {"molecule": "CCCS(=O)(=O)Nc1ccc(F)c(C(=O)c2c[nH]c3ncc(-c4ccc(Cl)cc4)cc23)c1F", "note": "+ CN(C)c1ccc(Nc2c3ccc(NC(=O)CCN4CCCC4)cc3nc3cc(NC(=O)CCN4CCCC4)ccc23)cc1", "values": [{"measurement": "IC50", "setting": "second compound 0.0316 µM", "result": "> 10", "unit": "µM"}, {"measurement": "IC50", "setting": "second compound 0.1 µM", "result": 8.45, "unit": "µM"}, {"measurement": "IC50", "setting": "second compound 0.316 µM", "result": "> 10", "unit": "µM"}, {"measurement": "IC50", "setting": "second compound 1 µM", "result": "> 10", "unit": "µM"}, {"measurement": "IC50", "setting": "second compound 3.16 µM", "result": "> 10", "unit": "µM"}, {"measurement": "IC50", "setting": "second compound 10 µM", "result": "> 10", "unit": "µM"}, {"measurement": "viability, T/C", "setting": "[1]", "result": 91.6, "unit": "%"}, {"measurement": "viability, T/C", "setting": "[2]", "result": 94.2, "unit": "%"}, {"measurement": "viability, T/C", "setting": "[3]", "result": 103, "unit": "%"}, {"measurement": "viability, T/C", "setting": "[4]", "result": 66.5, "unit": "%"}, {"measurement": "viability, T/C", "setting": "[5]", "result": 72.2, "unit": "%"}, {"measurement": "viability, T/C", "setting": "[6]", "result": 60.6, "unit": "%"}, {"measurement": "viability, T/C", "setting": "[7]", "result": 78.2, "unit": "%"}, {"measurement": "viability, T/C", "setting": "[8]", "result": 83.9, "unit": "%"}, {"measurement": "viability, T/C", "setting": "[9]", "result": 95, "unit": "%"}, {"measurement": "viability, T/C", "setting": "[10]", "result": 80.3, "unit": "%"}, {"measurement": "viability, T/C", "setting": "[11]", "result": 68.1, "unit": "%"}, {"measurement": "viability, T/C", "setting": "[12]", "result": 46.9, "unit": "%"}, {"measurement": "viability, T/C", "setting": "[13]", "result": 105, "unit": "%"}, {"measurement": "viability, T/C", "setting": "[14]", "result": 78.5, "unit": "%"}, {"measurement": "viability, T/C", "setting": "[15]", "result": 89.6, "unit": "%"}, {"measurement": "viability, T/C", "setting": "[16]", "result": 94.7, "unit": "%"}, {"measurement": "viability, T/C", "setting": "[17]", "result": 83.1, "unit": "%"}, {"measurement": "viability, T/C", "setting": "[18]", "result": 68.1, "unit": "%"}, {"measurement": "viability, T/C", "setting": "[19]", "result": 82.5, "unit": "%"}, {"measurement": "viability, T/C", "setting": "[20]", "result": 86, "unit": "%"}, {"measurement": "viability, T/C", "setting": "[21]", "result": 83.3, "unit": "%"}, {"measurement": "viability, T/C", "setting": "[22]", "result": 80.2, "unit": "%"}, {"measurement": "viability, T/C", "setting": "[23]", "result": 79.3, "unit": "%"}, {"measurement": "viability, T/C", "setting": "[24]", "result": 60.8, "unit": "%"}, {"measurement": "viability, T/C", "setting": "[25]", "result": 97.5, "unit": "%"}, {"measurement": "viability, T/C", "setting": "[26]", "result": 101, "unit": "%"}, {"measurement": "viability, T/C", "setting": "[27]", "result": 108, "unit": "%"}, {"measurement": "viability, T/C", "setting": "[28]", "result": 87.8, "unit": "%"}, {"measurement": "viability, T/C", "setting": "[29]", "result": 84.9, "unit": "%"}, {"measurement": "viability, T/C", "setting": "[30]", "result": 53.8, "unit": "%"}, {"measurement": "viability, T/C", "setting": "[31]", "result": 103, "unit": "%"}, {"measurement": "viability, T/C", "setting": "[32]", "result": 111, "unit": "%"}, {"measurement": "viability, T/C", "setting": "[33]", "result": 131, "unit": "%"}, {"measurement": "viability, T/C", "setting": "[34]", "result": 122, "unit": "%"}, {"measurement": "viability, T/C", "setting": "[35]", "result": 115, "unit": "%"}, {"measurement": "viability, T/C", "setting": "[36]", "result": 78.4, "unit": "%"}]}]}
